Laboratory results published in patent US20080076129A1, “Method of Detecting an Increased Susceptibility to Breast Cancer” (priority 2000, published 2008).

T1: COMT (Homo sapiens, UniProt P21964)
T1 construct: made in house; host or cells: Escherichia coli DH5αF′Iq
T1 sequence (P21964 51-271): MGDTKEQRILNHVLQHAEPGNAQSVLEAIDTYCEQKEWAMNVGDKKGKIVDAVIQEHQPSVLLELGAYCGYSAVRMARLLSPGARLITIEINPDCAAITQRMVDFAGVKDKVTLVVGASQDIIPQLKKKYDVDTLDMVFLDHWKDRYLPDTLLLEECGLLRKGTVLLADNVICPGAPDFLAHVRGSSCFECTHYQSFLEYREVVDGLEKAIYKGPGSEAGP


Legend:
DNA [1] = settings: cited from earlier work
COMT = target: T1, COMT; experiment: Assay of COMT activity, purified recombinant His-COMT, methylation of catechol estrogens; assay type: biochemical; settings: substrate 2-100 μM
Method: Assay of COMT Activity. Purified recombinant His-COMT (300 pmol) was reconstituted 0.5 ml of 100 mM KPO4, pH 7.4, containing 5 mM MgCl2, 10 mM β-mercaptoethanol, and 200 μM SAM. Reactions were initiated by adding varying concentrations of each individual catechol estrogen (2, 3, 6, 9, 12, 15, 20, 40, 60, 80, and 100 μM). Blanks contained all compounds except SAM. Reactions proceeded for 10 min at 37° C. with gentle shaking and then were terminated by addition of 2 ml CH2Cl2. To determine COMT activity in breast cancer cells, ZR-75 and MCF-7 cells were harvested at confluency and homogenized in 100 mM KPO4, pH 7.4, 5 mM MgCl2, 10 mM β-mercaptoethanol. Following ultracentrifugation of the cell homogenate (110,000 g, 30 min, 4° C.), the supernatant cytosol was divided into aliquots for ICELISA, protein determination (BCA assay; Pierce, Rockford, Ill.), and COMT assay. The latter was carried out in the presence of 200 μM SAM and 100 μM catechol estrogen for 20 min at 37° C. and then terminated by addition of CH2Cl2. The concentration of endogenous catechol and methoxy estrogens was below the limit of detection by gas chromatography/mass spectrometry.
Extraction and Gas Chromatography/Mass Spectrometry Analysis of Catechol Estrogens. A deuterated internal standard (100 μl of 8 mg/liter E2-d4 in methanol) was added and all estrogens extracted into the CH2Cl2 by vortex mixing for 30 s. 1.5 ml of the CH2Cl2 fraction was evaporated to dryness under air and volatile TMS derivatives prepared by heating the residue with 100 μl of 50% NO-bis(trimethylsilyl)trifluoroacetamide/1% trimethyl chlorosilane in acetonitrile at 56° C. for 30 min. The TMS derivatives of the estrogen metabolites were separated by gas chromatography (H-P 5890, Hewlett-Packard, Wilmington, Del.) on a 5% phenyl methyl silicone stationary phase fused silica capillary column (30 m×0.2 mm×0.5 μm film, HP5; Hewlett-Packard). Helium carrier gas was used at a flow of 1 ml/min. The injector was operated at 250° C., with 2 μl injected in the splitless mode, with a purge (60 ml/min helium) time of 0.6 min. The oven temperature was held at 180° C. for 0.5 min, then raised at 6° C./min to 250° C. where it was held for 17 min, then raised to 300° C. at 8° C./min to give a total run time of 35.42 min. This program permitted adequate separation of a wide range of estrogen metabolites. Retention times (in min) for the TMS derivatives were E1 20.13, E2 and E2-d4 21.89, 4-MeOE1 23.52, 2-MeO-3-MeOE1 (underivatized) 23.75, 2-OH-3-MeOE1 24.87, 2-MeOE1 25.2, 4-MeOE2 25.78, 2-OHE1 and 2-MeO-3-MeOE2 26.19, 2-OH-3-MeOE2 26.9, 2-MeOE2 27.18, 4-OHE1 27.27, 6α-OHE2 27.29, 2-OHE2 27.44, 4-OHE2 28.06, E3 28.38. The EI mass spectrometer (H-P 5970) was operated in the selected ion monitoring mode from 18 to 30 min. Ions monitored were TMS-E1 342, 257, 343; TMS2-E2-d4 420, 421, 287; TMS2-E2 416, 417, 285; TMS-4-MeOE1, TMS-2-OH-3-MeOE1, TMS-2-MeOE1 and TMS-3-MeO-4-OHE1 372, 373, 342; 2-MeO-3-MeOE1 314, 315, 229; TMS2-4-MeOE2, TMS2-2-OH-3-MeOE2, TMS2-2-MeOE2 and TMS2-3-MeO-4-OHE2 446, 447, 315; TMS2-2-OHE1 430, 431, 432; TMS-2-MeO-3-MeOE2 388, 389, 257; TMS2-4-OHE1 430, 431, 345; TMS2-6α-OHE2 414, 283, 309; TMS3-2-OHE2 and TMS3-4-OHE2 504, 505, 373; TMS3-E3 504, 505, 311 (FIG. 7). The instrument was calibrated by simultaneous preparation of an 11-point calibration over the range 0-22 nmol/tube of each compound. Sensitivity was determined to be between 0.02 and 0.04 nmol/tube (400-800 fmol on column) for the various compounds. […] Absolute extraction efficiency for E2, 2-OH-E2 and 4-OH-E2 at 3.5 nmol/tube was 119, 96, and 107% assessed by comparison to injections of spiked solvent samples onto the gas chromatograph. Internal standard added prior to extraction compensated for deviation from 100% recovery for all investigated compounds.
Statistical Analysis. […]

Syrian hamster = settings: in vivo; cited from earlier work
renal DNA = settings: in vivo; cited from earlier work
DNA [2] = settings: cited from earlier work; remark: listed apart in the source
CYP1B1 = experiment: Assay of CYP1B1 E2 hydroxylation activity; assay type: biochemical, human
Method: Assay of CYP1B1 E2 Hydroxylation Activity. Purified CYP1B1 (200 pmol) was reconstituted with a 2-fold molar amount of recombinant rat NADPH-P450 reductase (400 pmol), purified as previously described, and 60 μg of L-α-dilauroyl-sn-glycero-3-phosphocholine in the presence of sodium cholate (0.005%, w/v) in 0.4 ml of 100 mM potassium phosphate buffer, pH 7.4, containing varying concentrations of E2 (2, 3, 6, 9, 12, 15, 20, 40, 60, 80, and 100 μM) and 1 mM ascorbate. An NADPH-generating system consisting of 5 mM glucose 6-phosphate and 0.5 U of glucose-6-phosphate dehydrogenase/ml was added and reactions initiated by adding NADP+ to a final concentration of 0.5 mM. Reactions proceeded for 10 min at 37° C. with gentle shaking and then were terminated by addition of 2 ml CH2Cl2.
Extraction and Gas Chromatography/Mass Spectrometry Analysis of E2 and Metabolites. A deuterated internal standard (100 μl of 8 mg/liter E2-2, 4, 16, 16-d4 in methanol; CDN Isotopes, Pointe-Claire, Quebec) was added and all steroids extracted into CH2Cl2 by vortex mixing for 30 s. 1.5 ml of the CH2Cl2 fraction was evaporated to dryness under air and volatile TMS derivatives prepared by heating the residue with 100 μl of 50% NO-bis(trimethylsilyl)trifluoroacetamide/1% trimethyl chlorosilane in acetonitrile at 56° C. for 30 min. The TMS derivatives of E2 and its metabolites were separated by gas chromatography (H-P 5890, Hewlett-Packard, Wilmington, Del.) on a 5% phenyl methyl silicone stationary phase fused silica capillary column (30 m×0.2 mm×0.5 μm film, HP5; Hewlett-Packard). Helium carrier gas was used at a flow of 1 ml/min. The injector was operated at 250° C., with 2 μl injected in the splitless mode, with a purge (60 ml/min helium) time of 0.6 min. The oven temperature was held at 189° C. for 0.5 min, then raised at 6° C./min to 250° C. where it was held for 17 min, then raised to 300° C. at 8° C./min to give a total run time of 35.42 min. […] The EI mass spectrometer (H-P 5970) was operated in the selected ion monitoring mode from 18 to 34 min. Ions monitored were TMS2-E2-d4 420, 288, 330; TMS2-E2 416, 285, 326; TMS3-2-OH-E2 504, 373; TMS3-4-OH-E2 504, 373, 325; TMS3-16α-OH-E2 345, 311, 504. The instrument was calibrated by simultaneous preparation of an 11-point calibration over the range […]/tube of each compound. […] Internal standard added prior to extraction compensated for deviation from 100% recovery.
Statistical Analysis. Kinetic parameters (Km and kcat) were determined by nonlinear regression analysis using the computer program GraphPad PRISM (San Diego, Calif.).

Molecule | levels of depurinating DNA adducts versus E2-2,3Q and E1-2,3Q (DNA [1]) | pattern of rates of methylation (COMT) | induction of renal cancer (Syrian hamster) | levels of the oxidized base 8-hydroxy-deoxyguanosine (renal DNA) | DNA single-strand breaks (DNA [2]) | also measured
C[C@]12CC[C@@H]3C4=C(CC[C@H]3[C@@H]1CCC2=O)C(=O)C(=O)C=C4 [E1-3,4Q] | two to three orders of magnitude higher |  |  |  |  | 
C[C@]12CC[C@@H]3c4ccc(O)c(O)c4CC[C@H]3[C@@H]1CC[C@@H]2O [4-OHE2] |  | sigmoid curve pattern | induced renal cancer | significantly increased | induced DNA single-strand breaks | 
C[C@]12CC[C@@H]3c4ccc(O)c(O)c4CC[C@H]3[C@@H]1CCC2=O [4-OHE1] |  | sigmoid curve pattern | induced renal cancer | significantly increased |  | 
C[C@]12CC[C@@H]3C4=C(CC[C@H]3[C@@H]1CC[C@@H]2O)C(=O)C(=O)C=C4 [E2-3,4Q] | two to three orders of magnitude higher |  |  |  |  | 
C[C@]12CC[C@@H]3c4cc(O)c(O)cc4CC[C@H]3[C@@H]1CC[C@@H]2O [2-OHE2] |  | typical hyperbolic patterns |  | did not cause oxidative DNA damage | negligible effect | 
Variant 2: recombinant CYP1B1 with 48Arg, 119Ser, 432Val, 453Asn (protein, UniProt Q16678 1-543, looked up, variant A119S) Cytochrome P450 1B1: MGTSLSPNDPWPLNPLSIQQTTLLLLLSVLATVHVGQRLLRQRRRQLRSAPPGPFAWPLIGNAAAVGQAAHLSFARLARRYGDVFQIRLGSCPIVVLNGERAIHQALVQQGSAFADRPSFASFRVVSGGRSMAFGHYSEHWKVQRRAAHSMMRNFFTRQPRSRQVLEGHVLSEARELVALLVRGSADGAFLDPRPLTVVAVANVMSAVCFGCRYSHDDPEFRELLSHNEEFGRTVGAGSLVDVMPWLQYFPNPVRTVFREFEQLNRNFSNFILDKFLRHCESLRPGAAPRDMMDAFILSAEKKAAGDSHGGGARLDLENVPATITDIFGASQDTLSTALQWLLLLFTRYPDVQTRVQAELDQVVGRDRLPCMGDQPNLPYVLAFLYEAMRFSSFVPVTIPHATTANTSVLGYHIPKDTVVFVNQWSVNHDPLKWPNPENFDPARFLDKDGLINKDLTSRVMIFSVGKRRCIGEELSKMQLFLFISILAHQCDFRANPNEPAKMNFSYGLTIKPKSFKVNVTLRESMELLDSAVQNLQAKETCQ |  |  |  |  |  | 2-OH-Estradiol kcat (CYP1B1; E2 2-hydroxylation): 0.0383 ± 0.0017 s⁻¹; 4-OH-Estradiol kcat (CYP1B1; E2 4-hydroxylation): 0.0633 ± 0.0017 s⁻¹; 16a-OH-Esrradiol kcat (CYP1B1; E2 16α-hydroxylation): 0.00567 ± 0.00033 s⁻¹
